Five molecules from patent US12091426B2, “Bifunctional degraders of hematopoietic progenitor kinase and therapeutic uses thereof” (Nurix Therapeutics, Inc., priority 2021, dated 2024) can be followed below.

For the test, the target named is T1, HPK1 (Homo sapiens, UniProt Q92918).
T1 construct: A HiBiT tag was introduced by CRISPR on the N terminus of HPK1 in Jurkat cells; host or cells: Jurkat cells (ATCC TIB-152), monoclonal line with CRISPR knock-in of HiBiT at the endogenous HPK1 locus
Put plainly: HPK1 Cellular HiBit Degradation Assay. It counts as cell-based. The following applies: HiBiT HPK1 Jurkat cells, 24 hrs; for DC50: concentration at which 50% of HPK1 was remaining, read-out: DC50 Category; for Dmax: Jurkat, maximum degradation vs DMSO vehicle control, read-out: Dmax Category. In outline: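 Jurkat cells with CRISPR N-terminal HiBiT-tagged endogenous HPK1 treated 24 h at 37 °C with 11-point, 3.16-fold dilutions (10 uM to 0.1 nM final). HiBiT lytic luminescence gives % HPK1 remaining versus DMSO, with parental cells as background. Four-parameter fit yields DC50; Dmax = 100 minus lowest % remaining.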
(In general: HiBiT is a short tag that completes a luciferase, so light tracks the accessible tagged protein.)

T1 sequence (Q92918 whole entry): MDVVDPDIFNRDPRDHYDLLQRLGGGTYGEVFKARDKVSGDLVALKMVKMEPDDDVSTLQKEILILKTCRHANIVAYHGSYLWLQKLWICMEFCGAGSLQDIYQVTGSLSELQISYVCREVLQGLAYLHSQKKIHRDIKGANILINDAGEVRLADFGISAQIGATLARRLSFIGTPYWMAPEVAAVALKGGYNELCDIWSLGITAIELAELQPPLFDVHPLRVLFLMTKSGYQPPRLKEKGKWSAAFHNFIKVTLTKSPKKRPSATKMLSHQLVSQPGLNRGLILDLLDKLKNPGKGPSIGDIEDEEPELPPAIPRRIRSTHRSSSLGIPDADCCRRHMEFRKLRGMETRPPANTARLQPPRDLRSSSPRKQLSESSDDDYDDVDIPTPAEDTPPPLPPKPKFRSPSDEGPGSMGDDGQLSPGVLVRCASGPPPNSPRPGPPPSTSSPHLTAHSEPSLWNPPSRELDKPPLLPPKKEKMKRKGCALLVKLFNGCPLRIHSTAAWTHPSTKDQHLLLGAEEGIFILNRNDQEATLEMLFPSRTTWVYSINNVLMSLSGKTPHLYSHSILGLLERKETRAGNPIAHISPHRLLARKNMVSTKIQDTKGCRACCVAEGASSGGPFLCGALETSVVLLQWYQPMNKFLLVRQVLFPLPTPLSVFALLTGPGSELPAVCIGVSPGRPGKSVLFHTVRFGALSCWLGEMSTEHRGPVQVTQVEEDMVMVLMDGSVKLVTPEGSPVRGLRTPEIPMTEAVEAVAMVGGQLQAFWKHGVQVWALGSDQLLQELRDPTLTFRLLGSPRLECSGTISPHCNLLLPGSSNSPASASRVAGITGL

With `CC(C)n1cnc2cc(-c3ccc4c(c3)N([C@H]3C[C@@H](N5CCCCC5)C3)C(=O)C43CCN(C(=O)[C@@H]4CCN(C(=O)C5CCN(c6ccc(C7CCC(=O)NC7=O)cn6)CC5)C4)CC3)nc(NC3CC3)c21` (mixture of isomers) [Example 23, (3RS)-3-(6-{4-[(3R)-3-({6-[4-(cyclopropylamino)-3-(propan-2-yl)-3H-imidazo[4,5-c]pyridin-6-yl]-2-oxo-1-[(1S,3S)-3-(piperidin-1-yl)cyclobutyl]-1,2-dihydrospiro[indole-3,4′-piperidin]-1′-yl}carbonyl)pyrrolidine-1-carbonyl]piperidin-1-yl}pyridin-3-yl)piperidine-2,6-dione], the DC50 (usually the concentration at which degradation of the target reaches its halfway point) was below 100 nM and the Dmax (as a rule, the largest share of the target that was removed) was 70 to 85%.
The corresponding values for `CC(C)n1cnc2cc(-c3ccc4c(c3)N([C@H]3C[C@@H](N5CCCCC5)C3)C(=O)C43CCN(C(=O)c4ccc(C5CCN(C(=O)C6CCN(c7ccc(C8CCC(=O)NC8=O)cn7)CC6)CC5)cc4)CC3)nc(NC3CC3)c21` (mixture of isomers) [Example 302, (3RS)-3-[6-(4-{4-[4-({6-[4-(cyclopropylamino)-3-(propan-2-yl)-3H-imidazo[4,5-c]pyridin-6-yl]-2-oxo-1-[(1S,3S)-3-(piperidin-1-yl)cyclobutyl]-1,2-dihydrospiro[indole-3,4′-piperidin]-1′-yl}carbonyl)phenyl]piperidine-1-carbonyl}piperidin-1-yl)pyridin-3-yl]piperidine-2,6-dione] are 100 to 500 nM and 70 to 85%.
Take `CC(C)n1cnc2cc(-c3ccc4c(c3)N([C@H]3C[C@@H](N5CCCCC5)C3)C(=O)C43CCN(C(=O)C4CCN(C(=O)[C@H]5CC[C@H](n6cc7cc(C8CCC(=O)NC8=O)ccc7n6)CC5)CC4)CC3)nc(NC3CC3)c21` (stereo partly drawn) [Example 179, 3-{2-[(1R,4R)-4-[4-({6-[4-(cyclopropylamino)-3-(propan-2-yl)-3H-imidazo[4,5-c]pyridin-6-yl]-2-oxo-1-[(1S,3S)-3-(piperidin-1-yl)cyclobutyl]-1,2-dihydrospiro[indole-3,4′-piperidin]-1′-yl}carbonyl)piperidine-1-carbonyl]cyclohexyl]-2H-indazol-5-yl}piperidine-2,6-dione]: the DC50 fell in the range of 100 to 500 nM and the Dmax is 70 to 85%.
Turning to `Cc1cc(C2CCC(=O)NC2=O)ccc1N1CCC(C(=O)N2CCC(C)(C(=O)N3CCC4(CC3)C(=O)N([C@H]3C[C@@H](N5CCCCC5)C3)c3cc(-c5cc6ncn(C(C)C)c6c(NC6CC6)n5)ccc34)CC2)CC1` (mixture of isomers) [Example 226, (3RS)-3-(4-{4-[4-({6-[4-(cyclopropylamino)-3-(propan-2-yl)-3H-imidazo[4,5-c]pyridin-6-yl]-2-oxo-1-[(1S,3S)-3-(piperidin-1-yl)cyclobutyl]-1,2-dihydrospiro[indole-3,4′-piperidin]-1′-yl}carbonyl)-4-methylpiperidine-1-carbonyl]piperidin-1-yl}-3-methylphenyl)piperidine-2,6-dione], the DC50 lay in the range of 100 to 500 nM and the Dmax lay in the range of 70 to 85%.
Turning to `CC(C)n1cnc2cc(-c3ccc4c(c3)N([C@H]3C[C@@H](N5CCCCC5)C3)C(=O)C43CCN(C(=O)C4(C)CCN(C(=O)C[C@H]5CCN(c6ccc(C7CCC(=O)NC7=O)cn6)C5)CC4)CC3)nc(NC3CC3)c21` (stereo partly drawn) [Example 154, 3-{6-[(3R)-3-{2-[4-({6-[4-(cyclopropylamino)-3-isopropylimidazo[4,5-c]pyridin-6-yl]-2-oxo-1-[(1S,3S)-3-(piperidin-1-yl)cyclobutyl]spiro[indole-3,4′-piperidin]-1′-yl}carbonyl)-4-methylpiperidin-1-yl]-2-oxoethyl}pyrrolidin-1-yl]pyridin-3-yl}piperidine-2,6-dione], the DC50 is 100 to 500 nM and the maximal degradation (Dmax) fell in the range of 50 to 70%.
